These results are taken from ChEMBL document CHEMBL3621135 (ACS Med Chem Lett, 2015).

A value given as a limit tells only on which side of the number the result lay.

A short description of data set [1]: Toxicity against human HepG2 cells. The format is cell-based.
The target in data set [2] is Non-receptor tyrosine-protein kinase TYK2 (Homo sapiens, UniProt P29597). Description: Inhibition of recombinant TYK2 (unknown origin) by scintillation counting method.
The test system of another data set is A549. Description: Antiproliferative activity against human A549 cells incubated for 72 hrs by [3H] thymidine incorporation assay. It is filed as functional, cell-based. Background: Dividing cells build labelled thymidine or BrdU into new DNA.
For a further data set, the system named is Mus musculus. Nature of the data set: AUC (0 to 8 hrs) in mouse pharamcodynamic model at 10 mg/kg, po. Particulars: in vivo. It is filed as ADME, organism-based. On the set-up: dose 10 mg/kg, time < 8 hr, route oral.
Data set [3] deals with T1, Tyrosine-protein kinase JAK2 (Homo sapiens, UniProt O60674). Description: Inhibition of recombinant JAK2 (unknown origin) using 5-FAM-KKKKEEIYFFFG-OH substrate and ATP incubated for 180 mins by […] method.
T1 sequence (O60674 whole entry): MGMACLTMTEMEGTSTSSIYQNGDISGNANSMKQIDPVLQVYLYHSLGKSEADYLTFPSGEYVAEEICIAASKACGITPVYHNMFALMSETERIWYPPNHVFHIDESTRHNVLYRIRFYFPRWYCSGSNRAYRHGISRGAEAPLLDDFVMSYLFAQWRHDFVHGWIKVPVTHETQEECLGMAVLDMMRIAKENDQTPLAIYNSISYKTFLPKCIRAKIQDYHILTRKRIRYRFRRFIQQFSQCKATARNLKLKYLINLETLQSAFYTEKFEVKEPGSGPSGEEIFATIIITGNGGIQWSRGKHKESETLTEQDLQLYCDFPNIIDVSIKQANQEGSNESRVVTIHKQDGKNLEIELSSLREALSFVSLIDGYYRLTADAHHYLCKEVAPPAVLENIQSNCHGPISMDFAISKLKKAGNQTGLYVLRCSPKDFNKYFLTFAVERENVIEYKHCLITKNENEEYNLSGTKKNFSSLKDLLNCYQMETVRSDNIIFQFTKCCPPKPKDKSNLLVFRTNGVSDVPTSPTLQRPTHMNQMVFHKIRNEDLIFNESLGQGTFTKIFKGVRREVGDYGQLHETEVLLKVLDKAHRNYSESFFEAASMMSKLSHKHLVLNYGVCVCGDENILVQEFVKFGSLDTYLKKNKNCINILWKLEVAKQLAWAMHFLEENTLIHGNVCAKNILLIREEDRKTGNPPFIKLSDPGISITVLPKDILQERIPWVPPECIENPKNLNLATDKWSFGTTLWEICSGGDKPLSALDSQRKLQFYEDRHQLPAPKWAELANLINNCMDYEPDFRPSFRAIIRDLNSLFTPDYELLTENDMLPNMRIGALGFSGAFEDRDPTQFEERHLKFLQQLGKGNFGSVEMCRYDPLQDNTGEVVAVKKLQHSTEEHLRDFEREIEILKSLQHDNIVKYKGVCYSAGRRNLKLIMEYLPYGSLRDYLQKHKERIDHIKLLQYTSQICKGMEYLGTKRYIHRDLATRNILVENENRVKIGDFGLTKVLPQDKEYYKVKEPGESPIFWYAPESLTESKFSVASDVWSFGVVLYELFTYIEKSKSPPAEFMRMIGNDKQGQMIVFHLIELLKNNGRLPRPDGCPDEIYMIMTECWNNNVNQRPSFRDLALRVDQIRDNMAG
For data set [4], the target named is Tyrosine-protein kinase JAK1 (Homo sapiens, UniProt P23458). Nature of the data set: Inhibition of recombinant JAK1 (unknown origin) using 5-FAM-KKKKEEIYFFFG-OH substrate and ATP incubated for 180 mins by […] method.
Tyrosine-protein kinase JAK1, sequence (P23458 whole entry): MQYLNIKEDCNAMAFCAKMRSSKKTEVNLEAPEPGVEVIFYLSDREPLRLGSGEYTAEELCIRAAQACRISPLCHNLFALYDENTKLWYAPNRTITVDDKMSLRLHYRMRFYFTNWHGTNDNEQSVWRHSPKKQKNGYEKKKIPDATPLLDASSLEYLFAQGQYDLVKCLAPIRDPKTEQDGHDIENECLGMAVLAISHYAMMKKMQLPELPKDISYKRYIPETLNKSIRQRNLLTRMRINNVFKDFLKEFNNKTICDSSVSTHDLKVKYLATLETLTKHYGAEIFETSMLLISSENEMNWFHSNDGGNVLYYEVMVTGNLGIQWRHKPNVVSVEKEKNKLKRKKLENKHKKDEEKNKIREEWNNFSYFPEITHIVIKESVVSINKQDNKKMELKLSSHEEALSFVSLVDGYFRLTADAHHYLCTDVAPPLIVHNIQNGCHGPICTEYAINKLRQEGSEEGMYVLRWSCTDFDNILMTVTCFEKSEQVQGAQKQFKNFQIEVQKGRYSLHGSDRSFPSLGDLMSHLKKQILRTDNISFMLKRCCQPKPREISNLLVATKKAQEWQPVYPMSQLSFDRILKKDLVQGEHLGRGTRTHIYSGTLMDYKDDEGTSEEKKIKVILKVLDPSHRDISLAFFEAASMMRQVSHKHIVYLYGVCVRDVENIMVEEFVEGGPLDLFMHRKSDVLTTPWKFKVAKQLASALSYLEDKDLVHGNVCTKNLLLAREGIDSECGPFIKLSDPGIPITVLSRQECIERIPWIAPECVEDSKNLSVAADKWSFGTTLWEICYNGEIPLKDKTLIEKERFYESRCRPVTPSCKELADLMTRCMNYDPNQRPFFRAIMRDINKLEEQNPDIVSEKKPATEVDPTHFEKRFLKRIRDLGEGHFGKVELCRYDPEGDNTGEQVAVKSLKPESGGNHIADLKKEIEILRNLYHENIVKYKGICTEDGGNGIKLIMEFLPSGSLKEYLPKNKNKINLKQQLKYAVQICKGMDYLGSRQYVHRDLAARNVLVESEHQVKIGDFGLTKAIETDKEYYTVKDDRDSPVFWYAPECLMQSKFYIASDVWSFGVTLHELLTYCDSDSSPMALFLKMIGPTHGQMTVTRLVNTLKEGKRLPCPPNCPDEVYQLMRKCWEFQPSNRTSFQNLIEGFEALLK
Data set [5] has as its target T1, Tyrosine-protein kinase JAK2. Description: Binding affinity to JAK2 (unknown origin) assessed as dissociation constant.
Data set [6] can be described thus: Half life in dog at 0.2 mg/kg, iv and 0.2 mg/kg, po. Particulars: in vivo. It is filed as ADME, organism-based, Canis lupus familiaris.
A short description of data set [7]: AUC (0 to 24 hrs) in dog. It is filed as ADME, organism-based, Canis lupus familiaris. On the set-up: time < 24 hr. Particulars: in vivo.
Data set [8] can be described thus: Half life in rat at 1 mg/kg, iv and 1 mg/kg, po. The format is ADME, organism-based. Conditions: in vivo.
The test system of a further data set is Salmonella typhimurium. Nature of the data set: Mutagenicity in Salmonella typhimurium by Ames test. The format is toxicity, organism-based. Conditions: salmonella enterica subsp. enterica serovar typhimurium. A general note: The Ames test uses bacterial strains that need an amino acid and regain growth without it when mutated back.

Non-receptor tyrosine-protein kinase TYK2, sequence (P29597 whole entry): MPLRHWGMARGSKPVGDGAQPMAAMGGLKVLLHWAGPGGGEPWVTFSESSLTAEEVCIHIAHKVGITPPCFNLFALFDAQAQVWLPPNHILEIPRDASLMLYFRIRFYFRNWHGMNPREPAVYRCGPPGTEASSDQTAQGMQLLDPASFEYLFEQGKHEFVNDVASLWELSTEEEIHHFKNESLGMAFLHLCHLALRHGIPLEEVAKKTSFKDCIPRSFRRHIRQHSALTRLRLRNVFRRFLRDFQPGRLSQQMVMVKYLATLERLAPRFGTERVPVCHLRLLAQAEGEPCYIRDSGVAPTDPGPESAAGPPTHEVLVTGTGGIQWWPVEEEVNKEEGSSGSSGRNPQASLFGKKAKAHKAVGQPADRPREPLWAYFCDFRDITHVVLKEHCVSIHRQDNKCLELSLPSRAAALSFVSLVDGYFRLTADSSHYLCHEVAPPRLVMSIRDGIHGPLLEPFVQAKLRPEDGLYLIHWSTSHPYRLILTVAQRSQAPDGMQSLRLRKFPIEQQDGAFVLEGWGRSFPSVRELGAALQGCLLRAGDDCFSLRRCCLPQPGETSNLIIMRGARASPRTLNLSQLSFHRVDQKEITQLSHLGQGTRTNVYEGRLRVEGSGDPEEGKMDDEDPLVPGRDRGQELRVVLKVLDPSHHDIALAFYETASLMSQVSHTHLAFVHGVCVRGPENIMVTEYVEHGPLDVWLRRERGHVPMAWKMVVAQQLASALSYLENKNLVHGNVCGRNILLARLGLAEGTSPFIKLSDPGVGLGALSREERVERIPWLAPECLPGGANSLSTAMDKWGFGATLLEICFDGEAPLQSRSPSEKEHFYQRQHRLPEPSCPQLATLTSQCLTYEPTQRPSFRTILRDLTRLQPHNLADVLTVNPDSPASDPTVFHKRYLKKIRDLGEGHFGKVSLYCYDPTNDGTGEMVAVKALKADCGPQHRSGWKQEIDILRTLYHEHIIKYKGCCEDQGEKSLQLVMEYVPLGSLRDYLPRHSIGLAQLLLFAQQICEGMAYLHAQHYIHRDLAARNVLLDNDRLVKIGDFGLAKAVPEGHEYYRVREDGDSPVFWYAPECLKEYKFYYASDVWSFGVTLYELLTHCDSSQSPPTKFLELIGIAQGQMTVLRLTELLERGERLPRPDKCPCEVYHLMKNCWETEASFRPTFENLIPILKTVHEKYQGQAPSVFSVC

Regarding `CCn1c(C(=O)N(C2CC2)C2CC2)cc2c3c(ncn3C)c(Nc3cc(C)n(C)n3)nc21` [BMS-911543], the 50% inhibitory concentration (IC50) in [1] is over 50000 nM; in data set [2] it was 66 nM; with A549, 2400 nM; in [3], 1.1 nM; in data set [4], 75 nM. Also, in the data set on Mus musculus, the AUC was found to be 41 µM·h. For the same molecule, the dissociation constant (Kd) in data set [5] is 0.48 nM. Moreover, the half-life in [6] is 2.2 h; in data set [8] it was 5 h. Moreover, the exposure AUC(0-t) at 24 h in data set [7] came out at 610 µM·h. Besides, the Activity entry in the data set with Salmonella typhimurium is listed as “Non-toxic”.

One may read the IC50 as the midpoint of a concentration-inhibition curve. The AUC is concentration integrated over time. High values mean high exposure, low ones low exposure. By Kd is commonly meant a measure of binding affinity in units of concentration. A word on the half-life: it is the time in which the quantity being followed falls by half. What is called AUC(0-t) is exposure summed from dosing to a finite time, without extrapolation to infinity. A lower AUC(0-t) goes with less exposure.
